Laboratory results from US20140302556A1, “CONTROLLING O-GLYCOSYLATION IN LOWER EUKARYOTES” (priority 2011, published 2014).

What was measured:
[1] = system: un-mutagenized YGLY19376 parent strain; assay: Growth on agar plates containing PMT inhibitor; assay type: cell-based, Pichia pastoris; details: agar plate
Protocol: (§1) UV mutagenesis was performed as described by Winston (Curr. Protoc. Mol. Biol. 82:13.3B.1-13.3B.5 (2008)). Briefly, Pichia pastoris strain YGLY19376 (GFI5.0, pmt4Δ, expressing a recombinant IgG1) was grown in 40 mL YSD liquid medium over night at 24° C. Upon reaching an OD600 of five, a 10 mL aliquot of culture was transferred into an empty 100 mm sterile Petri dish, and treated, with the lid off, with 12 mJ/cm^2 of UV irradiation. After the UV treatment, the Petri dish was immediately covered with aluminum foil (to prevent photo-induced DNA repair). The mutagenized cells were allowed to recover at 24° C. for three hours in the dark. Two mL of the recovered YGLY19376 was then centrifuged at 2,000 rpm for five minutes. The cell pellet was then re-suspended in 400 μL 2% BMGY media and subsequently plated onto YSD agar plates containing 2 μg/mL or 4 μg/mL PMTi-4 PMT inhibitor (Example 4 compound of U.S. Published Application No. 20110076721 having the structure

[2] = system: Pichia pastoris mutant strain YGLY17157; assay: Growth on YSD agar plates containing PMTi-4; assay type: cell-based; details: agar plate, 24° C.
Protocol: as §1
After seven days incubation at 24° C., colonies were picked and re-streaked onto fresh PMTi-4-containing plates at the above concentrations.

[3] = system: non-mutagenized parent strain YGLY19376; assay: 1 L DasGip MeOH fed-batch fermentation with PMTi-4 (lysis, IgG1 titer, glycans); assay type: cell-based, Pichia pastoris
Protocol: (§2) Fed-batch fermentations, IgG1 purifications, characterization of N- and O-glycan profiles as well as all other analytical assays, were performed essentially as previously described (Barnard et al., J. Ind. Microbiol. Biotechnol. 37(9): 961-71 (2010); Potgieter et al., J. Biotechnol. 139(4):318-25 (2009)).
(§3) Both PMT inhibitor-resistant mutant strains (YGLY17156 and YGLY17157), as well as the non-mutagenized parent strain YGLY19376 were grown in 1 L DasGip fermentors using a standard MeOH fed-batch fermentation protocol (See for example, Potgieter et al., J. Biotechnol. 139(4): 318-25 (2009) and Hopkins et al., Glycobiol. August 12. [Epub ahead of print] PubMed PMID: 21840970 (2011)).
(§4) The robustness of the strains was determined by examining the fermentation cell cultures under microscope. Depending on the proportion of cell debris, a lysis-score was assigned from 0.5 to 5, with 5 being the worst lysis.
The inoculum seed flasks were inoculated from yeast patches (isolated from a single colony) on agar plates into 0.1 L of 4% BSGY in a 0.5-L baffled flask. Seed flasks were grown at 180 rpm and 24° C. (Innova 44, New Brunswick Scientific) for 48 hours. Cultivations were done in 1 L (fedbatch-pro, DASGIP BioTools) bioreactors. Vessels were charged with 0.54 L of 0.22 μm filtered 4% BSGY media and autoclaved at 121° C. for 45 minutes. […]

[4] = system: Pichia pastoris mutant strain YGLY17156; assay: Growth on YSD agar plates containing PMTi-4; assay type: cell-based; details: agar plate, 24° C.
[5] = system: PMTi-4-resistant mutant strain YGLY17156; assay: 1 L DasGip MeOH fed-batch fermentation with PMTi-4 (lysis, WCW, IgG1 titer, glycans); assay type: cell-based, Pichia pastoris
Protocol: as §2, §3, §4
(§5) The inoculum seed flasks were inoculated from yeast patches (isolated from a single colony) on agar plates into 0.1 L of 4% BSGY in a 0.5-L baffled flask. Seed flasks were grown at 180 rpm and 24° C. (Innova 44, New Brunswick Scientific) for 48 hours. Cultivations were done in 1 L (fedbatch-pro, DASGIP BioTools) bioreactors. Vessels were charged with 0.54 L of 0.22 μm filtered 4% BSGY media and autoclaved at 121° C. for 45 minutes. After sterilization and cooling; the aeration, agitation and temperatures were set to 0.7 vvm, 400 rpm and 24° C. respectively. The pH was adjusted to and controlled at 6.5 using 30% ammonium hydroxide. Inoculation of a prepared bioreactor occurred aseptically with 60 mL from a seed flask. Agitation was ramped to maintain 20% dissolved oxygen (DO) saturation. After the initial glycerol charge was consumed, denoted by a sharp increase in the dissolved oxygen, a 50% w/w glycerol solution containing 5 mg/L biotin and 32.3 mg/L PMTi4 was triggered to feed at 3.68 mL/hr for eight hours. During the glycerol fed-batch phase 0.375 mL of PTM2 salts were injected manually. Completion of the glycerol fed-batch was followed by a 0.5 hour starvation period and initiation of the induction phase. A continuous feed of a 50% v/v methanol solution containing 2.5 mg/L biotin and 6.25 mL/L PTM2 salts was started at a flat rate of 2.16 mL/hour. Injections of 0.25 mL of 1.9 mg/mL PMTi-4 (in methanol) were added after each 24 hours of induction. In general, individual fermentations were harvested within 36-110 hours of induction. The culture broth was clarified by centrifugation (Sorvall Evolution RC, Thermo Scientific) at 8500 rpm for 40 min and the resulting supernatant was submitted for purification.

[6] = system: PMTi-4-resistant mutant strain YGLY17157; assay: as above; assay type: cell-based, Pichia pastoris
Protocol: as §2, §3, §4, §5

## CC(C)COCC(Oc1cc(/C=C2\SC(=S)N(CC(=O)O)C2=O)ccc1OCCc1ccc(F)cc1)c1ccccc1 (stereo not drawn) [PMTi-4]
[1]
  PMT inhibitor concentration at which strain failed to grow: ≤ 0.1 µg/mL
[2]
  PMTi-resistance level: at least 1 μg/mL
[3]; IgG1
  O-glycan Occupancy (mannitol/protein): 1.0 mol/mol
[3]; lysis-score 0.5 to 5, 5 worst
  Lysis at 24° C. Day 2: 3
[4]
  PMTi-4 concentration at which robust growth is exhibited: at least 4 μg/mL
[5]; IgG1
  O-glycan Occupancy (mannitol/protein): 2.4 mol/mol
[5]; lysis-score 0.5 to 5, 5 worst
  Lysis at 24° C. Day 1: 0.5
  Lysis at 24° C. Day 3: 1
  Lysis at 24° C. Day 4: 1.5
[5]; wet cell weight
  WCW Day 4: 236
[6]; IgG1
  O-glycan Occupancy (mannitol/protein): 0.6 mol/mol
[6]; lysis-score 0.5 to 5, 5 worst
  Lysis at 24° C. Day 1: 0.5
  Lysis at 24° C. Day 3: 1
  Lysis at 24° C. Day 4: 1
[6]; wet cell weight
  WCW Day 4: 303
